For one series, the system named is carboplatin-treated mice. The series can be described thus: Example 4: lower doses, survival of erythrocyte lineages in carboplatin-treated mice. It counts as in vivo, BALB/c mouse. The method, then: (§1) The effects of PEGylated TPO Compound No. 1 on mice treated with carboplatin were observed. For all examples herein, a 10 mg/ml stock solution of PEGylated TPO Compound No. 1 was prepared in sterile saline. For mixing, the preparation was placed on a gyratory shaker for 15 mm. at 200 rpm. This method was used to dissolve PEGylated TPO Compound No. 1 without foaming. The stock was filtered using a GV Millex (0.22 μm) filter. Dosing solutions were then prepared from this stock using sterile saline. The stock and dosing solutions were prepared fresh on the day of use.
The ability of PEGylated TPO Compound No. 1 to function as a survival factor for megakaryocyte and erythrocyte lineages in carboplatin-treated mice as determined by changes in hematological parameters was observed. […] In this study, the effect of lower doses of PEGylated TPO Compound No. 1 (i.e., 30, 100 and 300 μg/kg) on the survival of erythrocyte lineages was examined to characterize the dose-response for this effect.
(§2) The groups of mice were treated with either carboplatin or vehicle (Phosphate Buffered Saline, PBS) by ip administration on Days −1 and 0 as delineated below. The optimal dose of carboplatin used to induce thrombocytopenia in the BALB/c mouse strain was previously determined to be a fractionated total dose of 120 mg/kg given as two consecutive daily injections (i.e., 2×60 mg/kg). Approximately one hour following the second dose of carboplatin, groups of mice were treated with PEGylated TPO Compound No. 1 or vehicle (sterile saline, SS, preservative-free 0.9% sodium chloride) by IV (bolus) injection as delineated in Table 4. The dose was administered on a per-weight basis (100 μl/10 g body weight).
On Days 6, 8 and 12, five mice in each test group were weighed and then euthanised using CO2-asphyxiation and exsanguinations via cardiac puncture. The blood samples were transferred to separate EDTA (lavender-top) microcontainers for hematologic evaluation. Groups of control mice (5) were processed on Days 6 & 12.

Series [1] deals with carboplatin treated mice. The series can be described thus: Example 5: two rounds of high-dose carboplatin, hematocrit and survival of mice. The format is in vivo, mouse. As to conditions: between days 4 and 18. The procedure: as §1
Groups of mice were treated with two rounds of the chemotherapeutic agent (carboplatin) ten days apart, with each round consisting of two consecutive days of carboplatin (i.e., 70 mg/kg/day administered on Days −1 & 0 and Days 10 & 11) as delineated below. The dose of carboplatin utilized for these survival studies exceeded the maximal tolerated dose for mice (i.e., 120 mg/kg; administered as 60 mg/kg/day on 2 consecutive days). One hour following the second dose of carboplatin in each round (i.e., Day 0 and 11) mice were treated with PEGylated TPO Compound No. 1 (100 μg/kg) or vehicle (sterile saline, SS, preservative-free 0.9% sodium chloride) by IV (bolus) injection as delineated below. The dose was administered on a per weight basis (100 μl/10 g body weight). […]

In series [2] the test system is carboplatin treated mice. The experiment in a line: Example 1: increasing doses one day after carboplatin, anemia in mice. The format is in vivo, BALB/c mouse. The procedure:
as §1
The effect of PEGylated TPO Compound No. 1 on the duration and severity of anemia following treatment of mice with carboplatin as determined by changes in hemoglobin levels, red blood cell count and hematocrit, was observed. For this study, increasing amounts of PEGylated TPO Compound No. 1 were administered to mice one day following a carboplatin dose to characterize a possible dose-dependent effect on various red blood cell parameters.
as §2, with “intraperitoneal” for “ip”, “Days −2 and” for “Days”, “−1” for “−1 and 0”, “One day” for “Approximately one hour”, “0.90%” for “0.9%”, “1.” for “4.”
On Days 5, 7, 9 and 11, five mice in each test group were weighed and then euthanised using CO2-asphyxiation and exsanguinations via cardiac puncture. The blood samples were transferred to separate EDTA (lavender-top) microcontainers for hematologic evaluation. Groups of control mice (5) were processed on Days 5 and 11. The data are presented graphically as group means +SEM.

The subject of series [3] is carboplatin treated mice. The experiment in a line: Example 3: dosing at various times after carboplatin, anemia in mice. The format is in vivo, BALB/c mouse. The procedure: as §1
The effect of PEGylated TPO Compound No. 1 on the duration and severity of anemia following dosing regimens in which PEGylated TPO Compound No. 1 is administered at various times following the carboplatin treatment was observed. For this study, an amount of PEGylated TPO Compound No. 1 was administered to mice, one (1) hour, one (1) day or four (4) days following a carboplatin dose.
The groups of mice were treated with either carboplatin or vehicle (Phosphate Buffered Saline, PBS) by ip administration on Days −1 and 0 as delineated below. The optimal dose of carboplatin used to induce thrombocytopenia in the BALB/c mouse strain was previously determined to be a fractionated total dose of 120 mg/kg given as two consecutive daily injections (i.e., 2×60 mg/kg). One hour (Day 0), one day (Day 1) or four days (Day 4) following the second dose of carboplatin, groups of mice were treated with PEGylated TPO Compound No. 1 (300 μg/kg) or vehicle (sterile saline, SS, preservative-free 0.9% sodium chloride) by IV (bolus) injection as delineated in Table 3. The dose was administered on a per-weight basis (100 μl/10 g body weight).
On Days 6, 8, 10 & 12, five mice in each test group were weighed and then euthanised using CO2-asphyxiation and exsanguinations via cardiac puncture. The blood samples were transferred to separate EDTA (lavender-top) microcontainers for hematological evaluation. Groups of control mice (5) were processed on Days 6 & 12. The data are presented graphically as group means +SEM.

Non-standard residues stand in square brackets, D forms with d. No end group written: not given here. 2Nal = N[C@@H](Cc1ccc2ccccc2c1)C(=O)O; Sar = CNCC(=O)O

As for `N.N.O=C([O-])C1(C(=O)[O-])CCC1.[Pt+2]` [carboplatin, reference compound], the “decrease in hemoglobin levels” value in the series with carboplatin-treated mice (carboplatin alone 2×60 mg/kg ip, by Day 12) is given as “greater than 25%”; with carboplatin treated mice [2] (carboplatin alone 2×60 mg/kg ip, by Day 11), roughly 20%. In the series on carboplatin treated mice [1] (carboplatin alone 70 mg/kg/day, 2 rounds), the “deaths among mice not utilized for hematological evaluation” value was found to be 7 mice. In the series with carboplatin treated mice [3] (carboplatin alone 2×60 mg/kg ip, surviving mice (2 mice) by Day 12 compared to control groups), the “decreases in hemoglobin levels, RBC counts and hematocrits” value was “approx. 47%”.

For the molecule “Methoxypolyethyleneglycol20000-propionyl-L-Isoleucyl-L-Glutamyl-Glycyl-L-Prolyl-L-Threonyl-L-Leucyl-L-Arginyl-L-Glutaminyl-L-2-Naphthylalanyl-L-Leucyl-L-Alanyl-L-Alanyl-L-Arginyl-Sarcosyl-Ne-(methoxypolyethyleneglycol20000-propionyl-L-Isoleucyl-L-Glutamyl-Glycyl-L-Prolyl-L-Threonyl-L-Leucyl-L-Arginyl-L-Glutaminyl-L-2-Naphthylalanyl-L-Leucyl-L-Alanyl-L-Alanyl-L-Arginyl-Sarcosyl-)-Lysinamide ({methoxypolyethyleneglycol20000‑propionyl}-IEGPTLRQ[2Nal]LAAR[Sar]K[Sar]RAAL[2Nal]QRLTPGEI; also: dimer: positions 16-29 are the second 14-mer written in reverse, its Sar C-terminus joined to the K15 epsilon-amine, K15 is C-terminal lysinamide (NH2), methoxypolyethyleneglycol20000-propionyl also on Ile29 N-terminus) [PEGylated TPO Compound No. 1]”, in the series with carboplatin-treated mice (30, 100, 300 μg/kg iv), the “carboplatin-induced decreases in RBC counts and hematocrit” value is on record as “effectively inhibited”. The “weight loss or recovery” value in the series with carboplatin-treated mice (30, 100, 300 μg/kg iv, 13-Day study period) was “did not appear to affect weight loss or recovery”. In addition, the “carboplatin-induced decrease in hemoglobin levels” value was “totally inhibited” in the series with carboplatin-treated mice (all doses (30, 100, 300 μg/kg iv, about one hour after second carboplatin dose), Day 12) and “inhibited” with carboplatin treated mice [2] (all doses (300, 1000, 3000 μg/kg iv, one day after carboplatin 2×60 mg/kg ip), by Day 11). For the same molecule, in the series on carboplatin-treated mice (all doses, Day 12), the “anemia induced by carboplatin” value is given as “completely prevent the anemia”. Further, the “altered appearance and behavior (hunched, unkempt, soft stool)” value with carboplatin-treated mice (appeared to be dose-dependent) was “decreased the onset, frequency and severity of these signs”. Besides, the “deaths among mice not utilized for hematological evaluation” value with carboplatin treated mice [1] (combination therapy (carboplatin 70 mg/kg/day, 2 rounds, plus 100 μg/kg iv)) came out at 1 mouse. For the same molecule, in the series on carboplatin treated mice [2] (300, 1000, 3000 μg/kg iv one day after carboplatin, no statistical evaluation), the “carboplatin-associated decreases in RBC count and hematocrit” value is given as “inhibited”. In addition, the “body weight after carboplatin” value in the series with carboplatin treated mice [2] (all doses tested, 11-Day study period) is on record as “enhanced the recovery of the lost body weight”. Besides, the “altered appearance and behavior (hunched, flaccid, soiled anogenital areas)” value with carboplatin treated mice [2] (appeared to be dose-dependent) is “decreased the onset, frequency and severity of these signs”. The “carboplatin-induced decreases in hemoglobin levels, RBC counts and hematocrits” value in the series with carboplatin treated mice [3] (300 μg/kg iv on Day 0 (1 hour after carboplatin) and on Day 1) is reported as “prevented”. In addition, the “weight loss associated with carboplatin treatment” value in the series with carboplatin treated mice [3] (300 μg/kg iv on Day 0, Day 1 or Day 4, no statistical analysis) is listed as “did not appear to affect the weight loss”. Also, the “carboplatin-induced changes in erythrocyte parameters” value with carboplatin treated mice [3] (300 μg/kg iv on Day 4) is listed as “failed to affect carboplatin-induced changes”. In addition, the “onset, frequency or severity of signs (hunched, flaccid)” value in the series with carboplatin treated mice [3] (300 μg/kg iv, no detailed analysis) is listed as “did not appear to have a dramatic effect”. In the series on carboplatin treated mice [3] (dosed within 24 hours of chemotherapy), the carboplatin-induced anemia result is given as “Prevention of carboplatin-induced anemia is observed”.

These data come from US7615533B2, “TPO peptide compounds for treatment of anemia” (Janssen Pharmaceutica N.V., priority 2004, dated 2009).
